According to patent publication US6716829B2, “Aldosterone antagonist and cyclooxygenase-2 inhibitor combination therapy to prevent or treat inflammation-related cardiovascular disorders” (Pharmacia Corporation, priority 2000, dated 2004):
“And” between values parts separate entries of the source, which are not always exact repeats. Equal entries are not always repeated. “Also recorded” adds a separate entry of the source.

How the values were obtained:
[1] = test system: hydroxyproline; assay: Assay C: myocardial hydroxyproline assay; assay type: in vivo, Male Sprague-Dawley rats
Description: The procedure of Assay B was expanded upon in a further study. […] Myocardial tissue from animals in each treatment group was examined after 7, 14, or 30 days of treatment. […] Lesions were preceded by the expression and progressive upregulation of proinflammatory molecules. […] Prior to surgery the animals were individually weighed and placed in one of the following groups: […] Potassium chloride supplementation was added to the saline solution in order to prevent the potential hypokalemia associated with aldosterone excess. […] Louis, Mo.) was inserted subcutaneously at the nape of the neck. Aldosterone was administered at a dose of 0.75 µg/hour. […] Animals were sacrificed from each group (n=8-13) after 7, 14, or 30 days of treatment. Following exsanguination, hearts and kidneys were isolated, removed, rinsed in cold phosphate-buffered saline, and blotted dry. […] Myocardial hydroxyproline concentration was measured by a […] assay that quantifies the reaction between oxidized hydroxyproline, and p-dimethylaminobenzaldehyde as described previously (4). […] Dried tissues and a positive collagen control (Bovine Collagen Type I, Sigma, St. […] T. Baker, Phillipsburg, N.J.) for 5 min at 25° C. […] Samples were incubated at 60° C. for 30 min, cooled to room temperature, and absorbance was monitored at 558 nm. Hydroxyproline content was quantitated from a freshly prepared standard curve of trans-4-hydroxy-L-proline (Sigma, St. Louis, Mo.). All samples and standards were performed in duplicate.

[2] = test system: aldosterone + salt treated uninephrectomized rats; assay: Assay C, further aldosterone infusion study: radiotelemetrized arterial (systolic) blood pressure; assay type: in vivo, Male Sprague-Dawley rats; details: for Systolic Blood Pressure (mmHg): mean ± SEM of values every 5 min over 24-hour period
Description: Assay C: Further In Vivo Aldosterone Infusion Study
The procedure of Assay B was expanded upon in a further study. […] Myocardial tissue from animals in each treatment group was examined after 7, 14, or 30 days of treatment.
Male Sprague-Dawley rats, weighing 230 to 250 g, (Harlan Sprague-Dawley Industries, Indianapolis, IN) were housed in a room 12-hours light/12-hours dark daily cycle at an ambient temperature of 22±1° C. (n=96). Animals were allowed one week to adjust after arrival and had free access to TEKLAD 22/5 rodent diet (Harlan TEKLAD, Madison, Wis.) and tap water until the initiation of the experiment.
Potassium chloride supplementation was added to the saline solution in order to prevent the potential hypokalemia associated with aldosterone excess.
At the time of the surgery, an Alzet 2002 osmotic minipump (Alza Corp., Palo Alto, Calif.) containing either vehicle (9% ethanol/87% propylene glycol/4% dH2O) or 1.0 mg/mL d-aldosterone (Sigma Chemical, St. Louis, Mo.) was inserted subcutaneously at the nape of the neck. Aldosterone was administered at a dose of 0.75 µg/hour. […] Animals were sacrificed from each group (n=8-13) after 7, 14, or 30 days of treatment.
Animals to be sacrificed after 7 or 14 days of treatment were uninephrectomized and implanted with an Alzet minipump. Animals treated for 30 days were uninephrectomized, fitted for Alzet minipumps, and implanted with radio telemetry units (model #TA11PA-C40, Data Sciences Inc., St. Paul, Minn.) according to the following procedure. Animals were anesthetized with 5% isoflurane (SOLVAY Animal Health Inc., Mendota Heights, Minn.), which was delivered in O2 using a VMS anesthesia instrument (Matrix Medical, Inc., Orchard Park, N.Y.). Anesthesia was maintained with 1-2% isoflurane throughout the surgical procedure. The surgery site was clipped, scrubbed with nolvasan, and sprayed with betadine. A rostral-caudal incision was made through the skin from the base of the rib cage to the pubic region using a #11 scalpel blade. A second incision was made through the muscles of the abdominal wall to expose the peritoneal cavity. The […], renal artery and vein of the left kidney were isolated, tied off with 4-0 silk, and the kidney excised and discarded. Organs were carefully displaced with tissue retractors in order to expose the abdominal aorta. A 1.5 cm segment just rostral to the bifurcation of the abdominal aorta into the iliac arteries was cleared of excessive connective tissue and 4-0 silk was used to make an anchor adjacent to the aorta. A microvascular clip was then placed at both ends of the cleaned region to stop excessive blood flow. Using a bent, 21 gauge needle, the abdominal aorta was penetrated. The cannula of the radio telemetry unit was inserted and stabilized in the aorta using the 4-0 silk anchor. Organs were repositioned and the telemetry unit was placed over the organs. Using a non-interrupted suture pattern with 4-0 silk, the abdominal wall was closed, and the skin was subsequently closed using a 4-0 silk in an interrupted suture pattern. Animals were injected around the sutures with 100 μL of the anesthetic Marcaine HCl (Sanofi Winthrop Pharmaceuticals, New York, N.Y.) and given an injection (i.m.) of the antibiotic Mandol (Eli Lilly & Co., Indianapolis, Ind.). Post-operative care included monitoring the animals on a heating pad during recovery from anesthesia until sternal recumbency was reestablished. Animals were monitored daily for signs of distress and infection at the surgical site. Animals displaying continued discomfort after surgery were treated with 0.1-0.5 mg/kg, s.c. Buphrenorphine (Rickett & Colman Pharmaceuticals, Inc. Richmond, Va.). Animals were then placed on tap water and TEKLAD 22/5 rodent diet (Harlan TEKLAD, Madison, Wis.).
Radiotelemetrized arterial blood pressure was calculated with the […]

C[C@]12CCC(=O)C=C1CC[C@@H]1[C@@H]2[C@@H](O)C[C@]2(C=O)[C@@H](C(=O)CO)CC[C@@H]12 [Aldosterone]
Hydroxyproline ([1]; group mean, data used for Table 15 (14 days of treatment)): 4.04 µg/mg | Hydroxyproline ([1]; group mean, data used for Table 16 (30 days of treatment)): 4.39 µg/mg | Hydroxyproline ([1]; individual rats, data used for Table 15 (14 days of treatment), incl. rat marked * excluded from statistics, listed as Aldosterone + salt): 2.89 µg/mg and 2.91 µg/mg and 6.28 µg/mg and 5.63 µg/mg and 4.83 µg/mg and 5.64 µg/mg and 5.29 µg/mg and 2.76 µg/mg and 2.68 µg/mg and 2.60 µg/mg and 3.00 µg/mg and 3.99 µg/mg and 2.73 µg/mg | Hydroxyproline ([1]; individual rats, data used for Table 16 (30 days of treatment), incl. rat marked * excluded from statistics, listed as Aldosterone + salt): 7.24 µg/mg and 8.01 µg/mg and 3.62 µg/mg and 3.69 µg/mg and 4.00 µg/mg and 3.54 µg/mg and 3.07 µg/mg and 3.25 µg/mg and 3.09 µg/mg | Hydroxyproline ([1]; mean after 7 days of treatment, eplerenone dose 100 mg/kg/day): 2.73 µg/mg | Hydroxyproline ([1]; mean after 14 days of treatment, eplerenone dose 100 mg/kg/day): 4.04 µg/mg | Hydroxyproline ([1]; mean after 30 days of treatment, eplerenone dose 100 mg/kg/day): 4.39 µg/mg | Systolic Blood Pressure ([2]; Day 3, individual rats, 30-day protocol, listed as Aldosterone + salt): 116 mmHg and 152 mmHg and 115 mmHg and 127 mmHg and 143 mmHg and 122 mmHg and 124 mmHg and 159 mmHg | Systolic Blood Pressure (mmHg) ([2]; Day 3): 132 ± 6 mmHg | Systolic Blood Pressure ([2]; Day 4, individual rats, 30-day protocol, listed as Aldosterone + salt): 120 mmHg and 149 mmHg and 122 mmHg and 134 mmHg and 129 mmHg and 135 mmHg and 125 mmHg and 152 mmHg | Systolic Blood Pressure (mmHg) ([2]; Day 4): 133 ± 4 mmHg | Systolic Blood Pressure ([2]; Day 5, individual rats, 30-day protocol, listed as Aldosterone + salt): 126 mmHg and 158 mmHg and 124 mmHg and 142 mmHg and 129 mmHg and 137 mmHg and 128 mmHg and 151 mmHg | Systolic Blood Pressure (mmHg) ([2]; Day 5): 137 ± 4 mmHg | Systolic Blood Pressure ([2]; Day 6, individual rats, 30-day protocol, listed as Aldosterone + salt): 132 mmHg and 170 mmHg and 136 mmHg and 157 mmHg and 144 mmHg and 149 mmHg and 135 mmHg and 158 mmHg | Systolic Blood Pressure (mmHg) ([2]; Day 6): 148 ± 5 mmHg | Systolic Blood Pressure ([2]; Day 7, individual rats, 30-day protocol, listed as Aldosterone + salt): 140 mmHg and 179 mmHg and 139 mmHg and 165 mmHg (2×) and 153 mmHg and 154 mmHg and 145 mmHg | Systolic Blood Pressure (mmHg) ([2]; Day 7): 155 ± 5 mmHg | Systolic Blood Pressure ([2]; Day 8, individual rats, 30-day protocol, listed as Aldosterone + salt): 145 mmHg and 182 mmHg and 143 mmHg and 160 mmHg and 158 mmHg and 154 mmHg and 146 mmHg and 163 mmHg | Systolic Blood Pressure (mmHg) ([2]; Day 8): 156 ± 4 mmHg | Systolic Blood Pressure ([2]; Day 9, individual rats, 30-day protocol, listed as Aldosterone + salt): 150 mmHg and 191 mmHg and 148 mmHg and 172 mmHg (2×) and 159 mmHg and 151 mmHg and 169 mmHg | Systolic Blood Pressure (mmHg) ([2]; Day 9): 164 ± 5 mmHg | Systolic Blood Pressure ([2]; Day 10, individual rats, 30-day protocol, listed as Aldosterone + salt): 156 mmHg and 196 mmHg and 149 mmHg and 175 mmHg (2×) and 165 mmHg and 151 mmHg and 172 mmHg | Systolic Blood Pressure (mmHg) ([2]; Day 10): 168 ± 6 mmHg | Systolic Blood Pressure ([2]; Day 11, individual rats, 30-day protocol, listed as Aldosterone + salt): 154 mmHg and 201 mmHg and 155 mmHg (2×) and 178 mmHg and 181 mmHg and 163 mmHg and 175 mmHg | Systolic Blood Pressure (mmHg) ([2]; Day 11): 171 ± 6 mmHg | Systolic Blood Pressure ([2]; Day 12, individual rats, 30-day protocol, listed as Aldosterone + salt): 159 mmHg and 207 mmHg and 161 mmHg and 190 mmHg (2×) and 186 mmHg and 170 mmHg and 163 mmHg | Systolic Blood Pressure (mmHg) ([2]; Day 12): 178 ± 6 mmHg | Systolic Blood Pressure ([2]; Day 13, individual rats, 30-day protocol, listed as Aldosterone + salt): 161 mmHg and 210 mmHg and 166 mmHg (2×) and 196 mmHg and 191 mmHg and 172 mmHg and 194 mmHg | Systolic Blood Pressure (mmHg) ([2]; Day 13): 182 ± 6 mmHg | Systolic Blood Pressure ([2]; Day 14, individual rats, 30-day protocol, listed as Aldosterone + salt): 164 mmHg and 208 mmHg and 170 mmHg and 204 mmHg and 192 mmHg (2×) and 181 mmHg and 159 mmHg and 172 mmHg | Systolic Blood Pressure (mmHg) ([2]; Day 14): 182 ± 6 mmHg | Systolic Blood Pressure ([2]; Day 15, individual rats, 30-day protocol, listed as Aldosterone + salt): 171 mmHg | Systolic Blood Pressure (mmHg) ([2]; Day 15): 181 ± 5 mmHg | Systolic Blood Pressure (mmHg) ([2]; Day 16): 187 ± 6 mmHg | Systolic Blood Pressure (mmHg) ([2]; Day 17): 195 ± 7 mmHg | Systolic Blood Pressure (mmHg) ([2]; Day 18): 196 ± 6 mmHg | Systolic Blood Pressure (mmHg) ([2]; Day 19): 200 ± 6 mmHg | Systolic Blood Pressure (mmHg) ([2]; Day 20): 203 ± 5 mmHg | Systolic Blood Pressure (mmHg) ([2]; Day 21): 208 ± 4 mmHg | Systolic Blood Pressure (mmHg) ([2]; Day 22): 209 ± 4 mmHg | Systolic Blood Pressure (mmHg) ([2]; Day 23): 208 ± 4 mmHg | Systolic Blood Pressure (mmHg) ([2]; Day 24): 210 ± 3 mmHg | Systolic Blood Pressure (mmHg) ([2]; Day 25): 210 ± 4 mmHg | Systolic Blood Pressure (mmHg) ([2]; Day 26): 210 ± 3 mmHg | Systolic Blood Pressure ([2]; aldosterone + salt, uninephrectomized rats, up to 30 days, eplerenone 100 mg/kg/day): induced severe hypertension; also recorded: progressive increase in blood pressure with time
